Key:
[1] = system: rats having CCl4-induced liver fibrosis; experiment: Comparison of therapeutic effect between composition and single component on rats having CCl4-induced liver fibrosis (Example 6); assay type: in vivo, SD rats; conditions: CCl4 model; for ALT (activity of blood serum) / AST (activity of blood serum) / Alb (content of blood serum) / GGT (activity of blood serum) / Hyp (content in liver tissues) / Tbil (content of blood serum): SD rats, three weeks of treatment while modeling, x ± s
Description: Modeling and grouping: 86 SD rats were randomly divided into a normal group (6) and modeling groups (80). The modeling method was the same as that in Example 2. Six weeks later, 2 rats from the modeling group died. The remaining 78 rats were randomly divided into a model group (12), a Composition A group (11), groups having a single component of Composition A (each group with 11 rats), a first control group of Fuzhenghuayu capsule (11), and a second control group of colchicine (11). The administered dose was the same as those in Example 5. After three weeks of treatment while modeling, the remaining […] rats were anesthetized by intraperitoneal injection of 2% pentobarbital sodium. […] Liver tissue was also collected in centrifuge tubes (1.5 mL) for analyzing. Two liver tissues from a hepatic lobule was collected and immersed in a formalin solution for testing.
Observing index and method: the same as those in Example 5.
The obtained data was expressed as x±s and analysed statistically with software SPSS 12.0 for variance analysis and comparison between groups.

[2] = system: rats having DMN-induced liver fibrosis; experiment: Comparison of therapeutic effect between composition and single component on rats having DMN-induced liver fibrosis (Example 5); assay type: in vivo, SD rats; conditions: DMN model; for ALT (activity of blood serum) / AST (activity of blood serum) / GGT (activity of blood serum) / Hyp (content in liver tissues) / Tbil (content of blood serum): gavage, two weeks of treatment, x ± s; for Degree of liver fibrosis S0 (number of rats) / Degree of liver fibrosis S1 (number of rats) / Degree of liver fibrosis S2 (number of rats) / Degree of liver fibrosis S3 (number of rats) / Degree of liver fibrosis S4 (number of rats): HE and Sirius red staining, S0-S4 staging; for Degree of liver fibrosis S0 (number of rats): stage S0; for Degree of liver fibrosis S1 (number of rats): stage S1; for Degree of liver fibrosis S2 (number of rats): stage S2; for Degree of liver fibrosis S3 (number of rats): stage S3; for Degree of liver fibrosis S4 (number of rats): stage S4
Description: Modeling and grouping: 80 SD rats were randomly divided into a normal group (6) and modeling groups (74). The modeling method was the same as that in Example 1. Four weeks later, 4 rats from the modeling group died. The remaining […] rats were randomly divided into a model group, a Composition A group, groups having a single component of Composition A, a first control group of Fuzhenghuayu capsule, and a second control group of colchicines, each group 10 rats. The administered dose of colchicines was 0.1 mg/Kg, Fuzhenghuayu capsule 4.6 g/Kg. The Composition A group was administered Cordyceps sinensis polysaccharide 60 mg/Kg, Gypenoside 50 mg/Kg, and Amygdaloside 80 mg/Kg. The administered dose of the Gypenoside group was 200 mg/Kg, Amygdaloside 80 mg/Kg, and Cordyceps sinensis polysaccharide 60 mg/Kg. Each group was administered by gavage in a volume of 10 mL/Kg. The model group was administered the same volume of drinking water. After two weeks of treatment, the remaining 61 rats were anesthetized by intraperitoneal injection of 2% pentobarbital sodium. […] Liver tissue was also collected in centrifuge tubes (1.5 mL) for analyzing. Two liver tissues from a hepatic lobule was collected and immersed in a formalin solution for testing.
Observing index and method: the content of hydroxyproline (Hyp) in liver tissues (Jamall's method); liver function of blood serum; liver tissues were stained with HE and Sirius red respectively to determine the degree of liver fibrosis according to the S0-S4 staging criteria in literatures.
The obtained data was expressed as x±s and analysed statistically with software SPSS 12.0 for variance analysis and comparison between groups. The comparison of ranked data between groups was performed by Ridit analysis.

SMILES | ALT (activity of blood serum) [1] | AST (activity of blood serum) [1] | Alb (content of blood serum) [1] | GGT (activity of blood serum) [1] [U · ml^−1] | Hyp (content in liver tissues) [1] | Tbil (content of blood serum) [1] [mg/dL] | effect on DMN-induced liver fibrosis (in words) ([2]; SD rats) | ALT (activity of blood serum) ([2]; SD rats) [U · ml^−1] | AST (activity of blood serum) ([2]; SD rats) [U · ml^−1] | GGT (activity of blood serum) ([2]; SD rats) [U · ml^−1] | Hyp (content in liver tissues) ([2]; SD rats) [μg · g^−1 liver weight] | Tbil (content of blood serum) ([2]; SD rats) [mg/dL] | Degree of liver fibrosis S0 (number of rats) [2] | Degree of liver fibrosis S1 (number of rats) [2] | Degree of liver fibrosis S2 (number of rats) [2] | Degree of liver fibrosis S3 (number of rats) [2] | Degree of liver fibrosis S4 (number of rats) [2] | collagen fibers, Sirius red staining of liver tissues ([1]; compared with the model group, FIG. 2) | collagen fibers, Sirius red staining of liver tissues ([2]; compared with the model group, FIG. 1)
N#C[C@H](O[C@@H]1O[C@H](CO[C@@H]2O[C@H](CO)[C@@H](O)[C@H](O)[C@H]2O)[C@@H](O)[C@H](O)[C@H]1O)c1ccccc1 [Amygdaloside] | 220.8 ± 47.4 ## U · ml^−1 | 249.1 ± 47.4 U · ml^−1 | 23.67 ± 2.84 g/L | 16.10 ± 6.74 | 403 ± 89 # μg · g^−1 liver weight | 0.85 ± 0.23 | can weaken the DMN-induced liver fibrosis | 55.39 ± 15.56 | 69.13 ± 15.74 | 37.01 ± 19.92 | 323 ± 79 | 0.95 ± 0.58 | 0 | 1 | 4 | 3 | 0 |  | 
COc1cc2c(c(OC)c1OC)-c1ccc(OC)c(=O)cc1[C@@H](NC(C)=O)CC2 [Colchicine] | 192.6 ± 60.9 # U · ml^−1 | 220.9 ± 60.9 # U · ml^−1 | 24.59 ± 2.11 ## g · l^−1 | 13.87 ± 9.13 | 373 ± 112 μg · g^−1 liver weight | 0.74 ± 0.25 |  | 47.55 ± 17.47 | 62.81 ± 13.04 | 31.30 ± 17.21 | 300 ± 47 | 0.86 ± 0.56 | 0 | 1 | 5 | 2 | 0 | decreased as compared with the model group | decreased as compared with the model group

— patent US20100069325A1, “Pharmaceutical composition for treatment of chronic liver diseases and use thereof” (priority 2008, published 2010)
